Earlier results on 4 compounds are cited in PMC11327090, “The Nectin family ligands, PVRL2 and PVR, in cancer immunology and immunotherapy” (Frontiers in Immunology, 2024).

The subject of data set [1] is non-small cell lung cancer. Set-up: method as in PMID 35576957. Conditions: phase II trial.
Data set [2] deals with Myeloma cells. Set-up: method as in PMID 19098271. Conditions: treated myeloma cells.
Data set [3] deals with breast cancer cell lines. Set-up: method as in PMID 30039180. The settings on record: in vitro.

“placebo plus atezolizumab: anti-PD-L1 antibody atezolizumab with placebo, comparator arm of the phase II trial”: the objective response rate in data set [1] is given as 16.2%. Further, in data set [1] (95% CI in brackets), the Median progression-free survival was 3.6 months.
`CC(C)C[C@H](NC(=O)[C@H](Cc1ccccc1)NC(=O)c1cnccn1)B(O)O` [bortezomib]: the “PVRL2 and PVR expression” value in data set [2] is “upregulate PVRL2 and PVR expression”.
Consider `N[C@@H](Cc1ccc(N(CCCl)CCCl)cc1)C(=O)O` [melphalan], for which, in data set [2], the “PVRL2 and PVR expression” value is “upregulate PVRL2 and PVR expression”.
Take `COc1cccc2c1C(=O)c1c(O)c3c(c(O)c1C2=O)C[C@@](O)(C(=O)CO)C[C@@H]3O[C@H]1C[C@H](N)[C@H](O)[C@H](C)O1` [Adriamycin]: the PVR expression entry in data set [3] was “increases PVR expression”. The “PVRL2 and PVR expression” value in data set [2] was “upregulate PVRL2 and PVR expression”.
